According to patent publication US20230339889A1, “DERIVATIVES OF 2-OXO-N-(4-(PYRIMIDIN-4-YLOXY/THIO)PHENYL)-1,2-DIHYDROPYRIDINE-3-CARBOXAMIDE FOR USE AS PROTEIN KINASE INHIBITORS FOR THERAPY” (AUCENTRA THERAPEUTICS PTY LTD, priority 2020, published 2023):

Columns and labels:
[1] = tested on: MV4-11; assay: Proliferation assay (MTT, leukaemia cancer cell line); type: cell-based; conditions: Homo sapiens; 1 µM compound, MV4-11 cells
Text: (§1) Compounds from Example 1 were subjected to standard resazurin and MTT assays on solid tumour and leukaemia cancer cell lines, respectively, as previously reported (Wang S et al., J Med Chem 47:1662-1675, 2004 and Diab S et al., CheMedChem 9:962-972, 2014).

[2] = tested on: FLT3-ITD; assay: ADP Glo Kinase assay; type: biochemical; conditions: 1 µM compound
Procedure: (§2) Inhibition of CDKs and FLT3 were determined using ADP Glo Kinase assays, as previously described in International Patent Publication No WO 2017/020065.

[3] = target: CDK4D1 (Homo sapiens, UniProt P11802); assay: ADP Glo Kinase assay; type: biochemical; conditions: 1 µM compound; read-out: % Residual enzymatic activity at 1 µM CDK4D1
CDK4D1, sequence (P11802 whole entry): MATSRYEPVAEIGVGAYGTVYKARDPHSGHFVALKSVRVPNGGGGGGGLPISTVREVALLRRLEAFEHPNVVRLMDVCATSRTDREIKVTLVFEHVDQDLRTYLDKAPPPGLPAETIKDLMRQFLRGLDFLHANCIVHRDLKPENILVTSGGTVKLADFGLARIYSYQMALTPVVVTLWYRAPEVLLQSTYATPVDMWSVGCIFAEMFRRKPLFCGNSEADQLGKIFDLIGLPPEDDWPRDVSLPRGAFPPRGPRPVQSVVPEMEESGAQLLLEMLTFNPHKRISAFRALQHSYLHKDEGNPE
CDK4D1, sequence (P24385 whole entry partner): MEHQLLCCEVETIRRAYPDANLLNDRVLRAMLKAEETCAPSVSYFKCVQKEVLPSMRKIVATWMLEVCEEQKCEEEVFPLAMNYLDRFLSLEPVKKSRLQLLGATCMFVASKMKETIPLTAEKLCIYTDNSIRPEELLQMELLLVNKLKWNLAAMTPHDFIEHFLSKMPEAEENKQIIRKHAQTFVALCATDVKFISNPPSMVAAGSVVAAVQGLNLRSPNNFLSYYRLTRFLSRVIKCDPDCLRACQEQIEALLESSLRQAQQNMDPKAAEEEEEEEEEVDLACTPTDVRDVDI
Procedure: as §2

[4] = target: CDK2E (Homo sapiens, UniProt P24941); assay: ADP Glo Kinase assay; type: biochemical; conditions: 1 µM compound; read-out: % Residual enzymatic activity at 1 µM CDK2E
Procedure: as §2

[5] = target: T1, MET (Homo sapiens, UniProt P08581); assay: Filter-binding radiometric kinase activity assay (KinaseProfiler, Eurofins); type: biochemical; conditions: 1 µM compound; read-out: % Residual enzymatic activity at 1 µM MET
T1 construct: purchased Eurofins Discovery (Kinase Profiler service)
T1 sequence (P08581 25-1390): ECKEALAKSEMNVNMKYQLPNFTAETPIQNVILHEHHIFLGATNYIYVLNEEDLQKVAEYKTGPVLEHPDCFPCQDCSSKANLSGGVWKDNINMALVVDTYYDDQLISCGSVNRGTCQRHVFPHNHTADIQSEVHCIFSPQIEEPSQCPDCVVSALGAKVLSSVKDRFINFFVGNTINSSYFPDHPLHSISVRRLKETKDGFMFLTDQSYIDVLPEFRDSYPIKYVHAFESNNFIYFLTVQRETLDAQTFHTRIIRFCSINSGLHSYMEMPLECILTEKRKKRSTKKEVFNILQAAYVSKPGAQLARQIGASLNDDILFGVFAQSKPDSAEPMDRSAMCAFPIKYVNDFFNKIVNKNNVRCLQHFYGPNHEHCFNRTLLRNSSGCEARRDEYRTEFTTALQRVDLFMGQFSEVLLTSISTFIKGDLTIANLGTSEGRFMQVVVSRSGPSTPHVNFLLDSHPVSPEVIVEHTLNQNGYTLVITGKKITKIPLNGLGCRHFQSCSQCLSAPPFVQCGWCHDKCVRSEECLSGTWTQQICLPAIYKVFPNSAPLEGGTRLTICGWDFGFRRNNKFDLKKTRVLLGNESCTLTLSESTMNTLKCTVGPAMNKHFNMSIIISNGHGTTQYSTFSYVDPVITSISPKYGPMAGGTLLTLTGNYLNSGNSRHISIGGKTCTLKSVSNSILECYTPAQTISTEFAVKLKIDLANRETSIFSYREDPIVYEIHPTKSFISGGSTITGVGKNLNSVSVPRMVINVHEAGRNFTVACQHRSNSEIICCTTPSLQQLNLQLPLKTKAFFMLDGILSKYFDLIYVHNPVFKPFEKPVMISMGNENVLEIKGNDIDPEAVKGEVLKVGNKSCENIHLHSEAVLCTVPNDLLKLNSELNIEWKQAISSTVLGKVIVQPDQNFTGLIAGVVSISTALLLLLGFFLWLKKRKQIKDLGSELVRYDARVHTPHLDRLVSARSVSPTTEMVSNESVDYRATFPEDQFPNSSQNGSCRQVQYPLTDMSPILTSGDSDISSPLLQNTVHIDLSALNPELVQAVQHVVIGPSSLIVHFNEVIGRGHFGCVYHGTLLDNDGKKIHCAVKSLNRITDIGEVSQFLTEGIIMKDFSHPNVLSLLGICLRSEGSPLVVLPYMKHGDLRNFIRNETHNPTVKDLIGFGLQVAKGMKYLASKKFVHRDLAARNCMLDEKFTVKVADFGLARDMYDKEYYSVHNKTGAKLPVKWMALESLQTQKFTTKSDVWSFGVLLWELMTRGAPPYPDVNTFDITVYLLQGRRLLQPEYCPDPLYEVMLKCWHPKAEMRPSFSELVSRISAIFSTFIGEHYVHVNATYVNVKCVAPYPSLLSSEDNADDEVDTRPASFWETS

[6] = target: T2, TYRO3 (Homo sapiens, UniProt Q06418); assay: as above; type: biochemical; conditions: 1 µM compound; read-out: % Residual enzymatic activity at 1 µM TYRO3
T2 construct: purchased Eurofins Discovery (Kinase Profiler service)
T2 sequence (Q06418 41-890): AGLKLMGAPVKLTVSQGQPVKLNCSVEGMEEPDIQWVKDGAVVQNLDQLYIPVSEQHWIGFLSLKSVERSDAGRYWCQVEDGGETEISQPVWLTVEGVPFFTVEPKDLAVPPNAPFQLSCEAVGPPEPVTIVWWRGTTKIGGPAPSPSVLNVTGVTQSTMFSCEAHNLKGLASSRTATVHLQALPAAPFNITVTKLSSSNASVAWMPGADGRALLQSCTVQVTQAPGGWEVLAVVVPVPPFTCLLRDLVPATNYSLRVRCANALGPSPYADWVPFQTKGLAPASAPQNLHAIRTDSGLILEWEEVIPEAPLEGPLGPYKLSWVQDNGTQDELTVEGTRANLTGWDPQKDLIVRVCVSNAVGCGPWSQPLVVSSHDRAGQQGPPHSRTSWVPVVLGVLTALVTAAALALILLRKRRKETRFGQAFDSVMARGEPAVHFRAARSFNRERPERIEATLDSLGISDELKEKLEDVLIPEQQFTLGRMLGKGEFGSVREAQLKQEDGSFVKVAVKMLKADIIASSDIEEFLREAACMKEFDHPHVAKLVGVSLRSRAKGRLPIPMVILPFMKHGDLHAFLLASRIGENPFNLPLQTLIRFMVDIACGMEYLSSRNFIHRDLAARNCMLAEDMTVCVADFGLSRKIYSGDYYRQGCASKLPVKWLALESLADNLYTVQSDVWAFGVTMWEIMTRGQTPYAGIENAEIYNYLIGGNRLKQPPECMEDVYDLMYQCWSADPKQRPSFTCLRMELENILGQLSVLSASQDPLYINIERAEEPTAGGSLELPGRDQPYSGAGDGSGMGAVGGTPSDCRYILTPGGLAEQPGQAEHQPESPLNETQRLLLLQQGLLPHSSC

[7] = target: T3, Mer (Homo sapiens, UniProt Q12866); assay: as above; type: biochemical; conditions: 1 µM compound; read-out: % Residual enzymatic activity at 1 µM Mer
T3 construct: purchased Eurofins Discovery (Kinase Profiler service)
T3 sequence (Q12866 21-999): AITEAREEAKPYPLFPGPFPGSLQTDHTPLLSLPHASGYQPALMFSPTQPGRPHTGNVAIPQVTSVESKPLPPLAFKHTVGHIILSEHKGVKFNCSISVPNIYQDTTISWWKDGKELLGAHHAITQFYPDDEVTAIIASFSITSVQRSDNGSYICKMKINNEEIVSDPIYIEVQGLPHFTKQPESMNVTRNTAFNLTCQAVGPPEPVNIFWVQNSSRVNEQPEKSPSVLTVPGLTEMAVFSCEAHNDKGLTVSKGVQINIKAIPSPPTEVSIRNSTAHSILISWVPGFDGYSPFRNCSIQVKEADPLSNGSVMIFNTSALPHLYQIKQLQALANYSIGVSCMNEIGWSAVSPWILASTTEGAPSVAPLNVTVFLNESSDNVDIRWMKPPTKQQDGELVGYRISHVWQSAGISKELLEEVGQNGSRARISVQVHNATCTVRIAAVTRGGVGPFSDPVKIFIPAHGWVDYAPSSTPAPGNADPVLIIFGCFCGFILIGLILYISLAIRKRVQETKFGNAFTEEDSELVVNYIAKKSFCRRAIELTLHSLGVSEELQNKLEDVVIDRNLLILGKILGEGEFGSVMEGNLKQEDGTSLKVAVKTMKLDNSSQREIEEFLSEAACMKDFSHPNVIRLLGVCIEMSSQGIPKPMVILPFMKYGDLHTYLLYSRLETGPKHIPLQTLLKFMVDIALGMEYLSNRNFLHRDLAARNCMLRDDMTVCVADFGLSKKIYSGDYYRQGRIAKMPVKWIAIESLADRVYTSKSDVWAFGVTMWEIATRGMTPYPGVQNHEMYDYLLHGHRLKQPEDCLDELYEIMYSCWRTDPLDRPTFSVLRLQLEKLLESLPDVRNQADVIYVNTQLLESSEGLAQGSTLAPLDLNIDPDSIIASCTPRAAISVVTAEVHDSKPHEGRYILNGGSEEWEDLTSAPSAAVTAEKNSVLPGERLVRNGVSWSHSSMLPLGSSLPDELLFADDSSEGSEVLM

[8] = tested on: MDA-MB-231; assay: Proliferation assay (resazurin, solid tumour cell line); type: cell-based; conditions: Homo sapiens; MDA-MB-231 cells
Text: as §1

Row | % Residual enzymatic activity at 1 µM FLT3-ITD [2] [%] | remaining activity at 1 µM [3] [%] | remaining activity at 1 µM [4] [%] | remaining activity at 1 µM [5] [%] | remaining activity at 1 µM [6] [%] | remaining activity at 1 µM [7] [%] | GI50 [8] [µM] | Compound | activity at 1 µM [1] [%]
1 | 49 | 69 | 96 | -7 | 0 | 6 | 7.9 | Nc1ncnc(Oc2ccc(NC(=O)c3cccn(-c4ccc(F)cc4)c3=O)cc2F)c1Cl [Cmpd 3, N-(4-((6-amino-5-chloropyrimidin-4-yl)oxy)-3-fluorophenyl)-1-(4-fluorophenyl)-2-oxo-1,2-dihydropyridine-3-carboxamide] | 3
2 | 79 | 69 | 89 | 8 | 6 | 14 | 8.9 | Nc1ncnc(Oc2ccc(NC(=O)c3cccn(-c4ccc(F)cc4)c3=O)cc2)c1F [Cmpd 6, N-(4-((6-amino-5-fluoropyrimidin-4-yl)oxy)phenyl)-1-(4-fluorophenyl)-2-oxo-1,2-dihydropyridine-3-carboxamide] | 3
3 | 40 | 72 | 80 | -6 | 5 | 4 | 2.3 | Nc1ncnc(Oc2ccc(NC(=O)c3cccn(-c4ccc(F)cc4)c3=O)c(F)c2)c1F [Cmpd 7, N-(4-((6-amino-5-fluoropyrimidin-4-yl)oxy)-2-fluorophenyl)-1-(4-fluorophenyl)-2-oxo-1,2-dihydropyridine-3-carboxamide] | 6
4 | 43 | 72 | 92 | -5 | 2 | 0 | 0.9 | Nc1ncnc(Oc2ccc(NC(=O)c3cccn(-c4ccc(F)cc4)c3=O)c(F)c2)c1Cl [Cmpd 5, N-(4-((6-amino-5-chloropyrimidin-4-yl)oxy)-2-fluorophenyl)-1-(4-fluorophenyl)-2-oxo-1,2-dihydropyridine-3-carboxamide] | 6
5 | 50 | 40 | 99 | 0 | -1 | 12 | 1.2 | Nc1ncnc(Oc2ccc(NC(=O)c3cccn(-c4ccc(F)cc4)c3=O)cc2F)c1F [Cmpd 1, N-(4-((6-amino-5-fluoropyrimidin-4-yl)oxy)-3-fluorophenyl)-1-(4-fluorophenyl)-2-oxo-1,2-dihydropyridine-3-carboxamide] | 3
6 | 33 | 48 | 97 | -5 | 2 | 19 | 2.7 | Nc1ncnc(Oc2ccc(NC(=O)c3cccn(-c4ccc(F)cc4)c3=O)cc2)c1Cl [Cmpd 4, N-(4-((6-amino-5-chloropyrimidin-4-yl)oxy)phenyl)-1-(4-fluorophenyl)-2-oxo-1,2-dihydropyridine-3-carboxamide] | 6
